# Results published in ChEMBL document CHEMBL5625197, “The mystery of titan hunter: Rationalized striking of the MAPK pathway via Newly synthesized 6-Indolylpyridone-3-Carbonitrile derivatives” (Eur J Med Chem, 2023).
# Legend:
# SR [1] = assay: cells; type: functional; settings: Homo sapiens, 96 h, time 4 day, read-out: GI
# Description: Growth inhibition of human SR cells at 10 uM incubated for 4 days by MTT assay relative to control
# HOP-92 [2] = assay: cells; type: functional; settings: Homo sapiens, HOP-92, 96 h, time 4 day, read-out: GI
# Description: Growth inhibition of human HOP-92 cells at 10 uM incubated for 4 days by MTT assay relative to control
# RXF 393 [3] = assay: cells; type: functional; settings: Homo sapiens, RXF 393, 96 h, time 4 day, read-out: GI
# Description: Growth inhibition of human RXF 393 cells at 10 uM incubated for 4 days by MTT assay relative to control
# HCT-116 [4] = assay: cells; type: functional; settings: Homo sapiens, HCT-116, 96 h, time 4 day, read-out: GI
# Description: Growth inhibition of human HCT-116 cells at 10 uM incubated for 4 days by MTT assay relative to control
# SR [5] = assay: Cytotoxicity against human SR cells assessed as cell growth inhibition incubated for 4 days by MTT assay; type: functional; settings: 96 h, time 4 day
# [6] = Cytotoxicity against human PCS-800-011 cells assessed as cell growth inhibition incubated for 4 days by MTT assay
# HOP-92 [7] = assay: Cytotoxicity against human HOP-92 cells assessed as cell growth inhibition incubated for 4 days by MTT assay; type: functional; settings: HOP-92, 96 h, time 4 day
# [8] = Cytotoxicity against human MRC5 cells assessed as cell growth inhibition incubated for 4 days by MTT assay
# RXF 393 [9] = assay: Cytotoxicity against human RXF 393 cells assessed as cell growth inhibition incubated for 4 days by MTT assay; type: functional; settings: RXF 393, 96 h, time 4 day
# [10] = Cytotoxicity against human HEK293 cells assessed as cell growth inhibition incubated for 4 days by MTT assay
# HCT-116 [11] = assay: Cytotoxicity against human HCT-116 cells assessed as cell growth inhibition incubated for 4 days by MTT assay; type: functional; settings: HCT-116, 96 h, time 4 day
# [12] = Cytotoxicity against human FHC cells assessed as cell growth inhibition incubated for 4 days by MTT assay
# [13] = Selectivity index, ratio of GI50 for cytotoxicity against human PCS-800-011 cells to GI50 for cytotoxicity against human SR cells; type: toxicity, cell-based; settings: PCS-800-011 cells versus SR cells, read-out: RatioGI50
# [14] = Selectivity index, ratio of GI50 for cytotoxicity against human MRC5 cells to GI50 for cytotoxicity against human HOP-92 cells
# [15] = Selectivity index, ratio of GI50 for cytotoxicity against human HEK293 cells to GI50 for cytotoxicity against human RXF 393 cells
# [16] = Selectivity index, ratio of GI50 for cytotoxicity against human FHC cells to GI50 for cytotoxicity against human HCT-116 cells; type: toxicity, cell-based; settings: FHC cells versus HCT-116 cells, read-out: RatioGI50
# [17] = target: Epidermal growth factor receptor (Homo sapiens, UniProt P00533); assay: Inhibition of wild type EGFR (unknown origin)
# [18] = target: Epidermal growth factor receptor (Homo sapiens, UniProt P00533, T790M); assay: Inhibition of EGFR T790M mutant (unknown origin)
# [19] = target: Hepatocyte growth factor receptor (Homo sapiens, UniProt P08581); assay: Inhibition of c-Met (unknown origin)
# [20] = target: Serine/threonine-protein kinase B-raf (Homo sapiens, UniProt P15056); assay: Inhibition of wild type B-RAF (unknown origin)
# [21] = target: Serine/threonine-protein kinase B-raf (Homo sapiens, UniProt P15056, V600E); assay: Inhibition of B-RAF V600E mutant (unknown origin)
# [22] = target: Cyclin-dependent kinase 4 (Homo sapiens, UniProt P11802); assay: Inhibition of CDK4 (unknown origin)
# [23] = target: Cyclin-dependent kinase 6 (Homo sapiens, UniProt Q00534); assay: Inhibition of CDK6 (unknown origin)
# HOP-92 [24] = assay: Induction of cell cycle arrest in human HOP-92 cells assessed as accumulation of cells at G0/G1 phase (reference value: 54.83 %); type: functional
# HOP-92 [25] = assay: Induction of cell cycle arrest in human HOP-92 cells assessed as accumulation of cells at S phase (reference value: 29.57 %); type: functional
# HOP-92 [26] = assay: Induction of cell cycle arrest in human HOP-92 cells assessed as accumulation of cells at G2/M phase (reference value: 15.6 %); type: functional
# HOP-92 [27] = assay: Induction of cell cycle arrest in human HOP-92 cells assessed as cell aggregation (reference value: 1.77 %); type: functional
# HOP-92 [28] = assay: Induction of cell cycle arrest in human HOP-92 cells assessed as cell debris (reference value: 2.18 %); type: functional
# HOP-92 [29] = assay: Induction of apoptosis in human HOP-92 cells assessed as early apoptotic rate by Annexin V/ PI staining based flow cytometry (reference value: 0.42 %); type: functional
# HOP-92 [30] = assay: Induction of apoptosis in human HOP-92 cells assessed as late apoptotic rate by Annexin V/ PI staining based flow cytometry (reference value: 0.26 %); type: functional
# HOP-92 [31] = assay: Induction of apoptosis in human HOP-92 cells assessed as total apoptotic rate by Annexin V/ PI staining based flow cytometry (reference value: 2.28 %); type: functional
# HOP-92 [32] = assay: Induction of apoptosis in human HOP-92 cells assessed as necrosis rate by Annexin V/ PI staining based flow cytometry (reference value: 1.6 %); type: functional
# HOP-92 [33] = assay: Induction of apoptosis in human HOP-92 cells assessed as fold change in caspase-3 gene expression by RT-PCR analysis; type: functional
# HOP-92 [34] = assay: Induction of apoptosis in human HOP-92 cells assessed as fold change in caspase-8 gene expression by RT-PCR analysis; type: functional
# HOP-92 [35] = assay: Induction of apoptosis in human HOP-92 cells assessed as fold change in caspase-9 gene expression by RT-PCR analysis; type: functional
# HOP-92 [36] = assay: Induction of apoptosis in human HOP-92 cells assessed as fold change in p53 gene expression by RT-PCR analysis; type: functional
# HOP-92 [37] = assay: Induction of apoptosis in human HOP-92 cells assessed as fold change in Bax gene expression by RT-PCR analysis; type: functional
# HOP-92 [38] = assay: Induction of apoptosis in human HOP-92 cells assessed as fold change in ratio of Bax/Bcl-2 gene expression by RT-PCR analysis; type: functional
# HOP-92 [39] = assay: Induction of apoptosis in human HOP-92 cells assessed as fold change in Bcl-2 gene expression by RT-PCR analysis; type: functional
# HOP-92 [40] = assay: Induction of apoptosis in human HOP-92 cells assessed as fold change in PARP1 gene expression by RT-PCR analysis; type: functional
# HOP-92 [41] = assay: Induction of apoptosis in human HOP-92 cells assessed as fold change in TNFR1 gene expression by RT-PCR analysis; type: functional
# HOP-92 [42] = assay: Induction of apoptosis in human HOP-92 cells assessed as PARP1 gene expression level by RT-PCR analysis relative to control; type: functional
# HOP-92 [43] = assay: Inhibition of cell migration in human HOP-92 cells incubated for 15 to 20 mins by crystal violet staining based trans-well assay relative to control; type: functional; settings: time 15-20 min
# HOP-92 [44] = assay: Inhibition of cell invasion in human HOP-92 cells incubated for 15 to 20 mins by crystal violet staining based trans-well assay relative to control; type: functional; settings: time 15-20 min
# [45] = Cytotoxicity against human PCS-800-011 cells assessed as fold change in cell growth inhibition incubated for 4 days by MTT assay; type: toxicity, cell-based; settings: pcs-800-011, 96 h, time 4 day
# HOP-92 [46] = assay: Inhibition of cell migration in human HOP-92 cells assessed as fold decrease in cell count incubated for 15 to 20 mins by crystal violet staining based trans-well assay; type: functional; settings: time 15-20 min
# HOP-92 [47] = assay: Inhibition of colony formation in human HOP-92 cells incubated for 24 hrs by crystal violet staining based assay relative to control; type: functional
structure (smiles),measurement,setting,value
N#Cc1c(-c2ccc(Cl)cc2Cl)cc(-c2c[nH]c3ccccc23)[nH]c1=O,inhibition of growth at 10 µM,SR [1],74.7%
same,inhibition of growth at 10 µM,HOP-92 [2],79.8%
same,inhibition of growth at 10 µM,RXF 393 [3],58.4%
same,inhibition of growth at 10 µM,HCT-116 [4],82.8%
same,GI50,SR [5],2.77 µM
same,GI50 at 96 h,[6],49.7 µM
same,GI50,HOP-92 [7],0.75 µM
same,GI50 at 96 h,[8],28.5 µM
same,GI50,RXF 393 [9],3.12 µM
same,GI50 at 96 h,[10],22.4 µM
same,GI50,HCT-116 [11],2.53 µM
same,GI50 at 96 h,[12],26.8 µM
same,selectivity ratio,[13],18
same,RatioGI50,[14],37.87
same,RatioGI50,[15],7.18
same,selectivity ratio,[16],10.6
same,IC50,[17],0.281 µM
same,IC50,[18],0.069 µM
same,IC50,[19],0.205 µM
same,IC50,[20],0.112 µM
same,IC50,[21],0.083 µM
same,IC50,[22],0.095 µM
same,IC50,[23],0.184 µM
same,Activity,HOP-92 [24],59.18%
same,Activity,HOP-92 [25],34.11%
same,Activity,HOP-92 [26],6.71%
same,Activity,HOP-92 [27],1.88%
same,Activity,HOP-92 [28],2.12%
same,Activity,HOP-92 [29],24.18%
same,Activity,HOP-92 [30],14.91%
same,Activity,HOP-92 [31],46.71%
same,Activity,HOP-92 [32],7.62%
same,fold change (FC),HOP-92 [33],7.93
same,fold change (FC),HOP-92 [34],2.99
same,fold change (FC),HOP-92 [35],6.75
same,fold change (FC),HOP-92 [36],5.97
same,fold change (FC),HOP-92 [37],5.49
same,fold change (FC),HOP-92 [38],30.5
same,fold change (FC),HOP-92 [39],0.18
same,fold change (FC),HOP-92 [40],0.23
same,fold change (FC),HOP-92 [41],0.27
same,Activity,HOP-92 [42],20%
same,inhibition (INH),HOP-92 [43],61.59%
same,inhibition (INH),HOP-92 [44],49.99%
same,fold change (FC),[45],2.3
same,fold change (FC),HOP-92 [46],2.6
same,inhibition (INH),HOP-92 [47],61.6%
